The target in assay [1] is T1, purified human CyB5R3 (Homo sapiens, UniProt P00387).
T1 construct: His6 (N); made in house; host or cells: E. coli SoluBL21 (Genlantis)
T1 sequence (P00387 1-301): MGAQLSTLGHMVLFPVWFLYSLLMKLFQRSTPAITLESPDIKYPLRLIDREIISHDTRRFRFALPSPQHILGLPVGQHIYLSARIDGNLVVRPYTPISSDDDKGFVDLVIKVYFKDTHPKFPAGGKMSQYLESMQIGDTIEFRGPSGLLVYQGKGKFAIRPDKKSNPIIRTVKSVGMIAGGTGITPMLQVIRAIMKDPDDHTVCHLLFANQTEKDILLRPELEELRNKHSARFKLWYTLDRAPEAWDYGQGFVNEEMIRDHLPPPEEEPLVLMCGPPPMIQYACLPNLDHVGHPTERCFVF
The experiment in a line: NADH-ferricyanide reductase activity inhibition assay with purified Cyb5R3. The assay is classed as biochemical. Particulars: for Cyb5R3 inhibitory activity, SAR trend of phenyl substituents: para position: carbon, chlorine, bromine. The protocol: FIG. 13. […] Primary screen using purified human CyB5R3 was incubated with each compound (500 μM) followed by activity measurements with an NADH-ferricyanide reductase assay. […] Purified proteins were prepared as previously described in Sparacino-Watkins et al. Briefly, human Cyb5R3 gene was cloned into the pET28a plasmid containing a His6 tag on the N-terminus of Cyb5R3. The plasmid was transformed into SoluBL21 cells (Genlantis) and protein purification was carried out as previously described. […] Chromatographic separation was conducted with an Äkta-Purifier FPLC (GE Healthcare Life Sciences, USA) running Unicorn software version 5.1. Metal affinity chromatography resin, Ni-NTA superflow (Qiagen), was packed into a XK 26/20 column (GE). Protein identity was confirmed with liquid chromatography and tandem mass spectrometry (LC-MS/MS, University of Pittsburgh Genome and Protein Core Facilities). The NADH-ferricyanide reductase activity for purified Cyb5R3 was assayed by spectrophotometric measurements using the rate of potassium ferricyanide reduction at 420 nm, according to Strittmatter and […]. […] The reaction was started by addition of cofactor NADH and reduction of ferricyanide was followed for 2 min by recording the absorbance decrease at 420 nm using Cary 50 spectrophotometer and small glass cuvettes with a 0.2 cm path length. Since NADH has partial reduction power independent of Cyb5R3, the reaction rate was corrected by subtracting the reaction rate of ferricyanide in the absence of enzyme. The enzyme activity was calculated using the extinction coefficient of 1.02 mM^-1 cm^-1 for the difference in absorbance between reduced and oxidized form of ferricyanide. In order to observe the inhibitory effect of each Cyb5R3 small molecule inhibitor, the compounds were pre-incubated with Cyb5R3 at 37° C. for 15 minutes followed by measurements in NADH-ferricyanide reductase activity as described above.

For assay [2], the target named is T1, purified human CyB5R3. The assay is described as above. In kind it is biochemical. Particulars: 50 μM of each compound.
In a further assay the test system is Cyb5R3. The following applies: previous studies; cited from earlier work.
The subject of assay [3] is sGC-Cyb5R3 macromolecular complexes. The experiment in a line: Proximity ligation assay for sGC-Cyb5R3 complexes in VSMs. The assay is classed as cell-based. The following applies: ODQ 10 μM, 10 min, primary rat aortic VSMs. The text has this:
FIG. 2. […] Cells were then subjected to a proximity ligation assay and imaged using confocal microscopy for sGC-Cyb5R3 macromolecular complexes (red punctates). Quantification of complexes per nuclei is shown in graph (n=3). **** indicates significance of <0.0001 and error bars are s.e.m. […] Following ODQ treatment, VSMs were fixed and subjected to a proximity ligation assay (PLA) to determine the association between oxidized sGC and Cyb5R3.

The test system of a further assay is oxidized sGC. The experiment in a line: Purified Cyb5R3/oxidized sGC cGMP assay stimulated with Bay 58-2667. The assay is classed as biochemical. Particulars: 100 nM Bay 58-2667, in the presence of Cyb5R3. The protocol:
FIG. 4. Purified Cyb5R3 directly reduces oxidized sGC resulting in limited stimulation by the sGC activator Bay 58-2667. Purified Cyb5R3, Cyb5b and oxidized sGC were mixed and incubated in trienthanolamine buffer, DTT (positive control), ZINC 747 (Cyb5R3 inhibitor), +/−NADH (required co-factor for Cyb5R3) in the absence of oxygen. Samples were then combined with GTP, and Mn^2+ followed by stimulation with 100 nM Bay 58-2667. After 5 min, reactions were stopped and samples were measured for cGMP. Quantification of cGMP is shown in the graph (n=2). Error bars represent s.e.m.

The test system of a further assay is primary rat VSMs. The experiment in a line: Rescue of sGC protein degradation by Bay 58-2667 in VSMs (Western blot). The assay is classed as cell-based. Particulars: Cyb5R3 knockdown or ZINC 747 treated VSMs. The text has this: FIG. 7. Bay 58-2667 rescues sGC protein degradation following Cyb5R3 knockdown or activity inhibition. a, Western blot analysis for sGC expression in primary rat VSMs treated with and without Bay 58-2667 following Cyb5R3 knockdown or with ZINC 39395747 (b). Quantification of sGC expression is shown in the graph below (n=2). Error bars represent s.e.m.
It was therefore tested if Bay 58 2667 could rescue the effects caused by decreased Cyb5R3 expression and activity.

Take `O=c1cc(CSc2ccc(Br)cc2)[nH]c(=S)[nH]1` [ZINC15987502]: the “Cyb5R3 inhibitory activity, SAR trend of phenyl substituents” value at purified human CyB5R3 [1] is on record as “activity increases with atomic mass”.
For `CCCc1cc(=O)[nH]c(=S)[nH]1` [PTU, propylthiouracil, reference compound], the inhibition (as a rule, the percentage by which the read-out fell short of the control) at 500 µM on purified human CyB5R3 [1] (500 μM of each compound, read-out: inhibition of CyB5R3, primary screen) is approximately 100%. The “inhibition of CyB5R3, secondary screen” value against purified human CyB5R3 [2] was “little inhibition”. Further, in the assay on Cyb5R3, the “concentration showing inhibition of Cyb5R3” value was “approximately 275 μM”.
With `O=c1cc(CSc2ccccc2)[nH]c(=O)[nH]1` [ZINC17744101], the “inhibition of CyB5R3, primary screen” value on purified human CyB5R3 [1] (500 μM of each compound) is on record as 100%. The “inhibition of CyB5R3, secondary screen” value on purified human CyB5R3 [2] worked out at 50%.
As to `CCCCCOc1cc(=O)[nH]c(=S)[nH]1` [ZINC13957379], the “inhibition of CyB5R3, primary screen” value against purified human CyB5R3 [1] (500 μM of each compound) is 100%.
Regarding `O=c1onc2cnc3ccccc3n12` [ODQ, 1H-(1,2,4)oxadiazolo[4,3-a]quinoxalin-1-one], in assay [3], the “number of sGC-Cyb5R3 macromolecular complexes” value is on record as “increases number of macromolecular complexes”.
In the case of `CC(C)SCc1cc(=O)[nH]c(=S)[nH]1` [ZINC31773411], the “inhibition of CyB5R3, primary screen” value on purified human CyB5R3 [1] (500 μM of each compound) worked out at 100%.
Turning to `O=C(O)CCCCN(CCc1ccccc1OCc1ccc(CCc2ccccc2)cc1)Cc1ccc(C(=O)O)cc1` [Bay 58-2667, cinaciguat], the “cGMP production on Bay 58-2667 stimulation” value in the assay with oxidized sGC is “does not increase cGMP production”. Moreover, the sGC protein levels entry in the assay with primary rat VSMs is given as “restoration of sGC protein levels”.
Turning to `C[C@@H]1N=C(CSc2ccccc2)CC(=O)N1` [ZINC05774833], the “inhibition of CyB5R3, primary screen” value against purified human CyB5R3 [1] (500 μM of each compound) is listed as “abolished all inhibitory effects”.
For the molecule `Cc1ccc(SCc2cc(=O)[nH]c(=S)[nH]2)cc1` [ZINC06493891], at purified human CyB5R3 [1], the “Cyb5R3 inhibitory activity, SAR trend of phenyl substituents” value was “activity increases with atomic mass”.
For the molecule `O=c1cc(CSc2ccccc2)[nH]c(=S)[nH]1` [ZINC05626394], the “inhibition of CyB5R3, primary screen” value on purified human CyB5R3 [1] (500 μM of each compound) was 100%. Further, at purified human CyB5R3 [2], the “inhibition of CyB5R3, secondary screen” value is listed as 100%.
